# In patent US10278948B1, “Method for transnasal delivery of anticonvulsant and therapeutic treatments” (priority 2015, dated 2019):
# Like-named read-outs stand apart in the source and are kept apart here.
# Key:
# [1] = cited from earlier work
# [2] = 96-200 mg/day perorally, at least 16 weeks, ten clinical studies (3320 individuals); cited from earlier work
# [3] = Transnasal administration of topiramate to the sphenopalatine ganglion in human patients (Example 1); type: in vivo
# From the text: The devices and methods described above were applied to the treatment of human patients for headache pain, when the inventor observed a dramatic effect with regard to treating obesity and promoting weight-loss. The results of this testing are surprising and unexpected in view of efficacy of the very low dosages administered as compared to published treatment regimens using topiramate without any co-delivered medicament for the treatment of obesity. […] The method of treatment was as follows: Topiramate was dissolved in sterile water to a concentration of 5 mg/mL. Then, 0.3 mL of this solution (1.5 mg of topiramate) per nostril was administered transnasally to the sphenopalatine ganglion using a Tx360® nasal applicator (from Tian Medical of Lombard, Ill.) in the manner described above with reference to the devices shown in FIGS. 6-11B and the relative distal-end anatomic positioning described with reference to FIGS. 4-5. This dosage was administered once per week for four weeks. Each patient lost between 5% and 10% of his/her body weight over the four-week period. […] It is expected that dosage may be effective for headache pain and for promoting weight loss as treatment for obesity at a frequency from once or twice per day to once per month when administered at […] delivered as about 0.2-0.3 mL per nostril toward the SPG. Although this sample is very small, it compares highly favorably to published studies using topiramate for weight loss, and the effective dosage was surprising far lower than the effective dosages reported in the literature. As a first example, in Obesity Review 2011 May; 12(5):e338-47. doi: 10.1111/j.1467-789X.2010.00846.x. Epub 2011 Mar. 28. Efficacy and safety of topiramate on weight loss: a meta-analysis of randomized controlled trials, ten clinical studies (3320 individuals) were evaluated, each of which was a randomized controlled study with at least 16 weeks of duration that reported the effect of topiramate on weight loss and adverse events using topiramate at 96-200 mg/day. […] Although the etiology is not apparent, a highly reasonable hypothesis is that the side effects and lack thereof, respectively, may be related to the significant dosage difference and/or administration mode (96-200 mg/day perorally versus 3 mg/week transnasally).
# [4] = cited from earlier work; for mean percent weight loss from baseline to week 24: placebo −2.6%
# [5] = every patient, after the first dosage, 3 mg transnasally to the SPG
smiles,measurement,setting,value
"CC1(C)O[C@@H]2[C@@H](CO[C@@]3(COS(N)(=O)=O)OC(C)(C)O[C@@H]23)O1 [topiramate, 2,3:4,5-bis-O-(1-methylethylidene)-β-D-fructopyranose sulfamate]",solubility in water,[1],up to 9.8 mg/mL
same,frequently observed side effects,[2],"paresthesia, taste impairment and psychomotor disturbances"
same,"side effects (paresthesia, taste impairment and psychomotor disturbances) reported by patients",[3]; 3 mg/week transnasally to the SPG,none of which was reported by patients in the presently-reported example
same,regular headache pain (patient-reported),"[3]; all patients, 3 mg/week transnasally to the SPG",reduced in frequency and severity
same,"craving for food, nicotine, and alcohol (patient-reported)",[3]; [5],"immediate reduction of craving for food, nicotine, and alcohol"
same,satiety (needing less food intake to feel full; patient-reported),[3]; [5],improved satiety
same,patients with effective weight loss,"[3]; human patients, 1.5 mg per nostril (3 mg) transnasally to the SPG once per week for four weeks",100%
same,mean percent weight loss from baseline to week 24,[4]; 64 mg/day topiramate group,−5.0%
same,mean percent weight loss from baseline to week 24,[4]; 96 mg/day topiramate group,−4.8%
same,mean percent weight loss from baseline to week 24,[4]; 192 mg/day topiramate group,−6.3%
same,mean percent weight loss from baseline to week 24,[4]; 384 mg/day topiramate group,−6.3%
same,most frequent adverse events,"[4]; 64-384 mg daily, 24 weeks","paresthesia, somnolence, and difficulty with memory, concentration, and attention"
same,percentages of patients who lost at least 5% or 10% of body weight compared with placebo,"[4]; 64-384 mg daily, 24 weeks",Greater percentages of topiramate-treated patients lost at least 5% or 10% of body weight compared with placebo
